Experimental findings from PubChem BioAssay AID1117331 are described below.

Structures are written as SMILES. The source made the active and inactive calls. The rule behind the calls is not given here. Where only a bound is given, the exact number is not on record here.

In the assay the test system is INS-1E rat insulinoma, insulin secretion, 5 mM glucose. The assay can be described thus: dose-response inhibition of insulin secretion, INS-1E rat insulinoma line, 5 mM glucose, cell-based (AID 1117331).

The term IC50 denotes the point on the concentration scale where inhibition reaches its midpoint. Turning to `Cc1ccc([N+](=O)[O-])[c]2c1[O][Hg]2`, the IC50 is > 33.3 µM (inactive).
